The values that follow come from patent publication US20110288086A1, “POLYCYCLIC QUINAZOLINES, PREPARATION THEREOF, AND USE THEREOF” (priority 2010, published 2011).

One test addresses EGFR tyrosine kinase (Homo sapiens, UniProt P00533). Briefly: EGFR tyrosine kinase inhibition in vitro (Invitrogen EGFR inhibitor screening kit PV3193).
Test [1] deals with PANC-1 human pancreatic cancer cells. Briefly: Tumor cell inhibition ratio, CCK-8 kit, PANC-1. The following applies: PANC-1, read-out: Antiproliferative effect (inhibition ratio) PANC-1. Background: Formazan colour is commonly taken as a measure of viable cells.
Description: (§1) The inhibitory activities of the compounds on tumor cells in vitro
A further test concerns the target T1, aurora kinase B (Homo sapiens, UniProt Q96GD4).
T1 construct: purchased Invitrogen PV3174
Briefly: Aurora kinase B inhibition in vitro (Invitrogen aurora kinase screening kit PV3174). In kind it is biochemical.

Test [2] deals with Hep3B2.1-7 human hepatoma carcinoma cells. Briefly: Tumor cell inhibition ratio, CCK-8 kit, Hep3B. To be noted: read-out: Antiproliferative effect (inhibition ratio) Hep3B.
Description: as §1
Test [3] relates to Hut78 T-Lymphocytic Leukemia cells. Briefly: Tumor cell inhibition ratio, CCK-8 kit, Hut78. To be noted: Homo sapiens, HuT78, read-out: Antiproliferative effect (inhibition ratio) Hut-78.
Description: as §1
The test system of test [4] is MDA-MB-435s human breast carcinoma cells. Briefly: Tumor cell inhibition ratio, CCK-8 kit, MDA-MB-435s. To be noted: read-out: Antiproliferative effect (inhibition ratio) 435s.
Description: as §1
Test [5] relates to A549 human lung cancer cells. Briefly: Tumor cell inhibition ratio, CCK-8 kit, A549. The following applies: A549, read-out: Antiproliferative effect (inhibition ratio) A549.
Description: as §1
Test [6] has as its system K562 human chronicity marrow leukemic cells. Briefly: Tumor cell inhibition ratio, CCK-8 kit, K562. To be noted: K562, read-out: Antiproliferative effect (inhibition ratio) K562.
Description: as §1
Test [7] relates to Colo320 human rectal cancer cells. Description: Tumor cell inhibition ratio, CCK-8 kit, Colo320. To be noted: COLO 320, read-out: Antiproliferative effect (inhibition ratio) Colo320.
Description: as §1
Test [8] has as its system Jurkat E6-1 human T-cell lymphoma. Briefly: Tumor cell inhibition ratio, CCK-8 kit, Jurkat E6-1. To be noted: Jurkat E6.1, read-out: Antiproliferative effect (inhibition ratio) E6-1.
Description: as §1
The test system of test [9] is PC-3 human carcinoma of prostate. Description: Tumor cell inhibition ratio, CCK-8 kit, PC-3. To be noted: read-out: Antiproliferative effect (inhibition ratio) PC-3.
Description: as §1

The structures appear in SMILES notation. Where a name gives a salt, the structure may show the parent alone.

T1 sequence (Q96GD4 whole entry): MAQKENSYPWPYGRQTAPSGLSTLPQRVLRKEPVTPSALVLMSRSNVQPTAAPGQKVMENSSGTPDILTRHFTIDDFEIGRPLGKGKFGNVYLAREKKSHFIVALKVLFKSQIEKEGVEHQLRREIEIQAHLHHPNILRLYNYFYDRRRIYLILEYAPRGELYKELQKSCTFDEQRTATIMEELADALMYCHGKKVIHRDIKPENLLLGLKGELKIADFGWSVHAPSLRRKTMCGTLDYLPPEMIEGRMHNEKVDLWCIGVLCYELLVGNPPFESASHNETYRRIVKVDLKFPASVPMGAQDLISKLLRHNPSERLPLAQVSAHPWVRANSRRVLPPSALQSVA
Chain of EGFR tyrosine kinase (P00533 25-1210): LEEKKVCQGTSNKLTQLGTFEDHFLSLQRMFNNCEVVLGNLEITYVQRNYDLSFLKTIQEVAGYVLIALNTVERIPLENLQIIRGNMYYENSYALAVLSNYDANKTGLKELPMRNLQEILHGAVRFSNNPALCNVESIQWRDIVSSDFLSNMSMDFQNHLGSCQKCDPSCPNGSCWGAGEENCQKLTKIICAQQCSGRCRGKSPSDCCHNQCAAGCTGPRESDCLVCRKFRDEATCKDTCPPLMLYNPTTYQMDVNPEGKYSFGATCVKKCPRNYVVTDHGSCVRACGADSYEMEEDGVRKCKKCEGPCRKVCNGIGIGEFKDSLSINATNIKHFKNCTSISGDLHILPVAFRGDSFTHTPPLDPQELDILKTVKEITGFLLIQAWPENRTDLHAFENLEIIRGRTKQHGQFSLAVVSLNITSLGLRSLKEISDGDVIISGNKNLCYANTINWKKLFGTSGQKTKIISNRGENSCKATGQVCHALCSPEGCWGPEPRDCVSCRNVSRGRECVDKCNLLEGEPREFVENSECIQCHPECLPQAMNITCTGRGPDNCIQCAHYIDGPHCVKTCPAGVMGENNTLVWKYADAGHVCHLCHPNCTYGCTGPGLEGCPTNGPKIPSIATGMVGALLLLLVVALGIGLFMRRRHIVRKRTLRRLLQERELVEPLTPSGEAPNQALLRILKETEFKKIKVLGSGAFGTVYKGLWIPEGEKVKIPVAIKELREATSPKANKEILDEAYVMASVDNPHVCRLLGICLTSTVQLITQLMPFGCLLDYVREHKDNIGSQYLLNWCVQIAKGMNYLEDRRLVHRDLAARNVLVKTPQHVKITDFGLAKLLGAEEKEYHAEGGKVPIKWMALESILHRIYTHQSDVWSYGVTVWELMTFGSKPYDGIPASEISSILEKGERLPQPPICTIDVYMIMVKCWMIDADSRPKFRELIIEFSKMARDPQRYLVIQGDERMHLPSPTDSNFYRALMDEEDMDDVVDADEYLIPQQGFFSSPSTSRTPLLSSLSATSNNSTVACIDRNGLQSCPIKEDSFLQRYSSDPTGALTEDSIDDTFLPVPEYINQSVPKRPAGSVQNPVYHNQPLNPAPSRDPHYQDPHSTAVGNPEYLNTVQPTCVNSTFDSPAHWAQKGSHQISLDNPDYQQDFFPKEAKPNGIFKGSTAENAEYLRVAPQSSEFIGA
Description for EGFR tyrosine kinase: The inhibitory activities of EGFR tyrosine kinase in vitro
Erlotinib hydrochloride was used as a positive control drug.

Take `C#Cc1cccc2c1CN1C=Nc3cc(OCCOC)c(OCCOC)cc3C1=N2.Cl` [Compound V-4, 9-ethynyl-2,3-bis(2-methoxyethoxy)-8H-quinazolino[4,3-b]quinazoline hydrochloride trihydrate]: the figures for the “The inhibition ratio of the compound on EGFR(%)” value on EGFR tyrosine kinase (40 μM) and on EGFR tyrosine kinase (200 μM) were 48.7% and 93.2%, respectively. Further, the inhibition at 10 µM came out at 39.7% in test [1]; 33.5% in [2]; 44.1% in test [3]; 31.3% in test [4]; 48.6% in test [5]; 31.4% in test [6]. Moreover, the inhibition at 10 µM in [7] turned out to be 48.9%; in test [8], 6.85%; in test [9] it was 22.2%. For the same molecule, the inhibition at 100 µM in test [1] turned out to be 85.9%; in [2], 79%; in test [3] it was 85%; in [4] it was 92.6%; in test [5] it was 78.7%; in test [6], 87.6%. Besides, the inhibition at 100 µM in test [7] is 83.4%; in test [8] it was 19.8%; in test [9], 62.7%. For the same molecule, the results for the “The inhibition ratio of the compound on Aurora B(%)” value on aurora kinase B (40 μM) and on aurora kinase B (200 μM) were 38.7% and 91.5%, respectively.

Turning to `COCCOc1cc2c(cc1OCCOC)C1=Nc3cc(C#N)ccc3CN1C=N2` [Compound V-17, 11-cyano-2,3-bis(2-methoxyethoxy)-8H-quinazolino[4,3-b]quinazoline], the “The inhibition ratio of the compound on EGFR(%)” value worked out at 25.4% at EGFR tyrosine kinase (40 μM) and 70.6% on EGFR tyrosine kinase (200 μM). The inhibition at 10 µM in test [1] was determined as 19.6%; in test [2] it was 58.4%; in [3] it was 35.9%; in test [4] it was 37.5%; in test [5] it was 49.9%; in test [6], 19.1%. The inhibition at 10 µM came out at 9.66% in test [7], 33.7% in test [8] and 28.1% in test [9]. Further, the inhibition at 100 µM was determined as 56.8% in test [1]; 85.2% in test [2]; 45.3% in test [3]; 95.5% in [4]; 87.1% in [5]; 25.2% in test [6]. Moreover, the inhibition at 100 µM in test [7] was determined as 26.1%; in test [8] it was 79.6%; in test [9] it was 91.7%. Besides, the “The inhibition ratio of the compound on Aurora B(%)” value on aurora kinase B (40 μM) was 26.4%; at aurora kinase B (200 μM), 84.3%.

In the case of `COCCOc1cc2c(cc1OCCOC)C1=Nc3cccc(Cl)c3CN1C=N2.Cl` [Compound V-1, 9-chloro-2,3-bis(2-methoxyethoxy)-8H-quinazolino[4,3-b]quinazoline hydrochloride monohydrate], the “The inhibition ratio of the compound on EGFR(%)” value at EGFR tyrosine kinase (40 μM) is recorded as 57.6%; on EGFR tyrosine kinase (200 μM), 91.5%. Moreover, the inhibition at 10 µM in test [1] was 35.7%; in test [2], 50.4%; in test [3], 16.1%; in test [4], 60.9%; in test [5] it was 40.5%; in test [6], 40.7%. The inhibition at 10 µM came to 55.1% in [7], 55% in test [8] and 51.6% in test [9]. Also, the inhibition at 100 µM in test [1] is 78.1%; in [2] it was 89.3%; in test [3], 64.5%; in test [4] it was 91.2%; in test [5], 81.4%; in [6], 87%. The inhibition at 100 µM in test [7] was 81%; in test [8], 81.7%; in test [9] it was 62.4%. The entries for the “The inhibition ratio of the compound on Aurora B(%)” value on aurora kinase B (40 μM) and at aurora kinase B (200 μM) were 47.6% and 88.6%, respectively.

In the case of `COCCOc1cc2c(cc1OCCOC)C1=Nc3cc(F)ccc3CN1C=N2` [Compound V-16, 11-fluoro-2,3-bis(2-methoxyethoxy)-8H-quinazolino[4,3-b]quinazoline], the “The inhibition ratio of the compound on EGFR(%)” value on EGFR tyrosine kinase (40 μM) came out at 21.7%; at EGFR tyrosine kinase (200 μM), 80.1%. Besides, the inhibition at 10 µM is 22.4% in test [1]; 30.3% in test [2]; 44.3% in [3]; 48.9% in test [4]; 50.7% in test [5]; 53.6% in [6]. Moreover, the results for the inhibition at 10 µM in test [7], in test [8] and in test [9] were 52.7%, 56.6% and 53.5%, respectively. Also, the inhibition at 100 µM turned out to be 99.9% in test [1]; 74.6% in [2]; 99.6% in [3]; 66.2% in test [4]; 70.2% in test [5]; 93.8% in [6]. The inhibition at 100 µM in [7] came out at 99.4%; in test [8] it was 97.3%; in test [9], 98.9%. The results for the “The inhibition ratio of the compound on Aurora B(%)” value on aurora kinase B (40 μM) and at aurora kinase B (200 μM) were 21.5% and 78.1%, respectively.

In the case of `COCCOc1cc2c(cc1OCCOC)C1=Nc3cccc(F)c3CN1C=N2` [Compound V-3, 9-fluoro-2,3-bis(2-methoxyethoxy)-8H-quinazolino[4,3-b]quinazoline mesylate], the entries for the “The inhibition ratio of the compound on EGFR(%)” value on EGFR tyrosine kinase (40 μM) and on EGFR tyrosine kinase (200 μM) were 49.5% and 81.6%, respectively. Also, the inhibition at 10 µM in test [1] is 30.9%; in test [2] it was 42.3%; in test [3] it was 44.1%; in [4], 3.38%; in test [5], 44.6%; in [6] it was 43.1%. Moreover, the results for the inhibition at 10 µM in [7], in [8] and in test [9] were 34.8%, 42% and 34%, respectively. Further, the inhibition at 100 µM in test [1] was 75.4%; in test [2], 80.7%; in test [3] it was 84.1%; in test [4], 84.1%; in [5] it was 76.2%; in test [6], 88.8%. Also, the inhibition at 100 µM is 79% in test [7], 78% in test [8] and 87% in test [9]. Also, the figures for the “The inhibition ratio of the compound on Aurora B(%)” value on aurora kinase B (40 μM) and at aurora kinase B (200 μM) were 39.5% and 83.6%, respectively.

For `COCCOc1cc2c(cc1OCCOC)C1=Nc3cccc(OC)c3CN1C=N2` [Compound V-10, 9-methoxy-2,3-bis(2-methoxyethoxy)-8H-quinazolino[4,3-b]quinazoline], the “The inhibition ratio of the compound on EGFR(%)” value at EGFR tyrosine kinase (40 μM) was found to be 30.8%; at EGFR tyrosine kinase (200 μM), 78.5%. Also, the inhibition at 10 µM in [1] came to 36.5%; in test [2], 31.9%; in test [3], 41.1%; in test [4], 29.6%; in test [5], 28.8%; in [6], 47.5%. The figures for the inhibition at 10 µM in test [7], in test [8] and in test [9] were 10.8%, 51.8% and 9.39%, respectively. Besides, the inhibition at 100 µM was 96.9% in test [1]; 72.2% in test [2]; 72.2% in test [3]; 65.1% in test [4]; 82.8% in [5]; 85% in test [6]. The results for the inhibition at 100 µM in [7], in test [8] and in test [9] were 72.8%, 84.2% and 91.7%, respectively. In addition, the “The inhibition ratio of the compound on Aurora B(%)” value turned out to be 20.8% on aurora kinase B (40 μM) and 73.6% on aurora kinase B (200 μM).
